The values below come from patent US20160000762A1, “IMPROVING COGNITIVE FUNCTION” (THE REGENTS OF THE UNIVERSITY OF CALIFORNIA, priority 2013, published 2016).

The target in one test is T1, human APP (Homo sapiens, UniProt P05067).
T1 construct: expressed in transfected cells; host or cells: COS7 cells
The test can be described thus: Cell surface biotinylation, COS7 cells expressing APP. The class given is cell-based. The following applies: 5 μM, 24 h. On the procedure: Cell lines. COS 7 cells (Lombardi Co-Resources Cancer Center, Georgetown University) were maintained in Opti-MEMO (Invitrogen) with 10% fetal bovine serum (FBS, Life Technologies, Inc.) in a 5% CO2 incubator. The cells were transiently transfected with 0.5-1 μg of plasmid in FuGENE® 6 (Roche) according to the manufacturer's protocol and cultured 24 hr in DMEM containing 10% FBS. For co-transfections, cells were similarly transfected with 0.5-1 μg of each plasmid in FUGENE® 6 (Roche) and cultured 24 hr in DMEM with 10% FBS.
Cell surface biotinylation. COS7 cells were transiently transfected with APP for 24 hr in OPTI-MEM® containing 10% fetal bovine serum, and then treated with BTA-EG4 or control for 24 hr. After 24 hr, surface proteins were biotin labeled, immobilized with NeutrAvidin™ Gel and incubated 1 h with SDS-PAGE sample buffer, including 50 mM DTT, as described previously (Minami et al., 2010). Eluates were analyzed for APP by immunoblotting.
It is well known that the majority of a-secretase activity occurs on the cell surface, while β- and γ-secretase activity occurs primarily in the early and late endosomes (Huse et al., 2000; Reiss et al., 2006). Thus, if APP is present at the cell's surface, it is preferentially cleaved by α-secretase, resulting in decreased Aβ production. Therefore, we examined whether BTA-EG4 regulates cell surface expression of APP. […]

The next test concerns RasGRF1, p-ERK, p-CREB. The test can be described thus: Ras signaling immunofluorescence, primary hippocampal neurons. The class given is cell-based, Sprague-Dawley rats. The following applies: 5 μM. On the procedure: Primary neuron culture and immunostaining. Primary hippocampal neurons from E19 Sprague-Dawley rats were cultured at 150 cells/mm^2 as previously described (Pak et al., 2001). Neurons were transfected using Lipofectamine™ 2000 (Invitrogen, Carlsbad, Calif., USA) or calcium phosphate precipitation with GFP+PLL, GFP+APP shRNA, or GFP+APP and treated with BTA-EG4. The following antibodies were used: mouse anti-GFP (Novus Biologicals, 9F9.F9), rabbit anti-GFP (Invitrogen, A11122), rabbit anti-GluR1 (Calbiochem, PC246), mouse anti-GluR2 (BD Pharmagen, 556341), mouse anti-postsynaptic density (PSD)-95 (NeuroMabs, Davis, Calif., USA), mouse anti-Synaptophysin (Sigma Aldrich, s5768), rabbit APP N-terminal (Sigma-Aldrich, A8967), anti-Ras (BD Biosciences, 610001), anti-RasGRF1 (Santa Cruz, C-20; BD Biosciences, 610149), anti-ERK1/2 (Cell Signaling, 4695), anti-p-ERK1/2 (Invitrogen, 36880), anti-CREB (Cell Signaling, D76D11), anti-p-CREB (Millipore, 06-519), and mouse anti-c-Myc (Novus Biologicals, 9E10). Cultured hippocampal neuron images were acquired by LSM 510 laser scanning confocal microscope (Zeiss). Confocal zseries image stacks encompassing entire dendrite segments were analyzed using MetaMorph software (Universal Imaging Corporation, Downington, Pa., USA).
We next investigated the molecular mechanism by which BTA-EG4 may alter dendritic spine formation. Ras, a small GTPase, is involved in dendritic spine formation and synaptic delivery of AMPA receptors (Zhu et al., 2002; Lee et al., 2011). Moreover, abnormal Ras signaling is associated with neurodegenerative disease, causing cognitive impairments and learning deficits (Stornetta and Zhu, 2011). Thus, we initially investigated the effect of BTA-EG4 on Ras signaling by treating primary hippocampal neurons with BTA-EG4 (5 μM) or control for 24 hrs. […] Further, levels of active Ras were elevated following BTA-EG4 treatment (5 μM) in primary cortical neurons (FIG. 7C) and following BTA-EG4 treatment (30 mg/kg) in wild-type mice (FIG. 7D). We also examined whether BTA-EG4 can alter the activity of downstream Ras signaling proteins, including p-ERK and p-CREB.
Since we observed that BTA-EG4 and APP could possibly regulate dendritic spine density through Ras-dependent mechanisms, we then examined whether BTA-EG4 requires APP to modulate Ras signaling. To test this hypothesis, primary hippocampal neurons were transfected with GFP and APP shRNA or GFP and APP, treated with control or BTA-EG4 (5 μM), then immunostained against RasGRF1 (FIGS. 9A, 9B).

The test system of a further test is Ras. The test can be described thus: Ras activity assay, brain lysate of 3× Tg AD mice. It is filed as in vivo. The following applies: cortex and hippocampus, 30 mg/kg daily, 2 weeks. As for the experimental part: Ras activity assay. Brain lysate from 3× Tg AD mice at 6-10 months or 13-16 months of age was homogenized with Ral buffer (25 mM Tris-HCl, pH 7.4, 250 mM NaCl, 0.5% NP40, 1.25 mM MgCl2, and 5% glycerol) to measure active Ras levels. Briefly, brain lysate was incubated with GST-Raf-RBD purified protein coupled with GLUTATHIONE SEPHAROSE™ (Amersham) overnight at 4° C. After 24 h, pellets were washed with Ral buffer and western blotting was conducted with anti-Ras.
BTA-EG4 injected 6-10 month old 3× Tg AD mice had increased Ras activity. […] Therefore, we examined whether the same mechanism is shared for improving dendritic spine density in the 3× Tg AD mouse model. To test this, 6-10 month old or 13-16 month old 3× Tg AD mice were injected with 30 mg/kg BTA-EG4 or vehicle daily for two weeks. After two weeks, mouse brains were homogenized with Ral buffer and levels of active Ras and RasGRF1 ([…]) were measured via Western blot. […] However, Ras activity was unchanged in the cortex and hippocampus of 13-16 month old mice (FIGS. 12E-12H, n=2 brains/group).

T1 sequence (P05067 18-770): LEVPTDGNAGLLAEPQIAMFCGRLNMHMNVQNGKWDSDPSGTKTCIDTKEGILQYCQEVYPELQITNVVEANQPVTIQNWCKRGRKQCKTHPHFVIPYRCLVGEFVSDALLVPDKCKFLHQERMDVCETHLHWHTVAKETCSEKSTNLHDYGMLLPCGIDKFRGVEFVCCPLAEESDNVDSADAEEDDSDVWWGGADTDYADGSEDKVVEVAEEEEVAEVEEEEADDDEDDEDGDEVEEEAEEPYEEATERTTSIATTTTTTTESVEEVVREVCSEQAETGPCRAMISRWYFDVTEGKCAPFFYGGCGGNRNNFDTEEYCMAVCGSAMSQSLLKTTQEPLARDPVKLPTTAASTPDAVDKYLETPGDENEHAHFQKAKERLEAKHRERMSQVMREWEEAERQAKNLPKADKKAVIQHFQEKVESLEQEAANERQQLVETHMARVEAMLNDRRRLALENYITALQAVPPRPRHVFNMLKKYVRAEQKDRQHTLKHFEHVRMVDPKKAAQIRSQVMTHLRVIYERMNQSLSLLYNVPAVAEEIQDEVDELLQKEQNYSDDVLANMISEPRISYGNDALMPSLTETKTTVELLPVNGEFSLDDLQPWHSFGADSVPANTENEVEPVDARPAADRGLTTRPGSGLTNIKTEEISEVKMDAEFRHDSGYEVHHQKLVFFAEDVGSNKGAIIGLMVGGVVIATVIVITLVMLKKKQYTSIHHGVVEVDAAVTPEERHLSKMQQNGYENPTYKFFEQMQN

On to BTA-EG4, for which the “cell surface APP” value at human APP was “increased”. Besides, in the test with RasGRF1, p-ERK, p-CREB (24 h), the “levels of RasGRF1” value is reported as “increased”, the “phosphorylation of CREB” value is “increased”, the “phosphorylation of ERK” value is on record as “increased” and the “total ERK or CREB levels” value is given as “without altering”. In the test with RasGRF1, p-ERK, p-CREB (knockdown of APP), the RasGRF1 entry was “did not increase”, the p-CREB entry is recorded as “ineffective” and the p-ERK result is listed as “ineffective”. For the same substance, in the test with RasGRF1, p-ERK, p-CREB (overexpression of APP), the RasGRF1 result is on record as “significantly increased”, the p-CREB entry is “significantly increased” and the p-ERK entry is recorded as “significantly increased”. Moreover, the Ras activity entry in the test with Ras (6-10 months) is given as “increased”. Besides, the Ras activity result in the test on Ras (13-16 months) is “unchanged”.
